One assay concerns the target T1, PI3Kα (p110α/p85α) (Homo sapiens, UniProt P42336).
T1 construct: purchased BPS Bioscience (San Diego, Calif.) or Millipore (Billerica, Mass.)
The assay is described as follows: HTRF assay, potency against active PI3Kα. Conditions: for IC50: HTRF, [ATP]=50 μM, [di-C8-PIP2]=10 μM, 30 min pre-incubation, read-out: PI3Kα Inhibition. Type of assay: biochemical. The procedure, abridged: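 Active p110/p85α lipid kinase reactions were started with ATP and run 30-60 minutes at 25 °C, then stopped and developed with HTRF detection mix. HTRF ratio converted to % inhibition against ±enzyme controls; IC50 from log[inhibitor] vs response, variable slope.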
For orientation: In TR-FRET formats the signal depends on donor and acceptor labels being close together.

For a further assay, the target named is T2, PI3Kγ (p120γ) (Homo sapiens, UniProt P48736).
T2 construct: purchased BPS Bioscience (San Diego, Calif.) or Millipore (Billerica, Mass.)
T2 sequence (P48736 whole entry): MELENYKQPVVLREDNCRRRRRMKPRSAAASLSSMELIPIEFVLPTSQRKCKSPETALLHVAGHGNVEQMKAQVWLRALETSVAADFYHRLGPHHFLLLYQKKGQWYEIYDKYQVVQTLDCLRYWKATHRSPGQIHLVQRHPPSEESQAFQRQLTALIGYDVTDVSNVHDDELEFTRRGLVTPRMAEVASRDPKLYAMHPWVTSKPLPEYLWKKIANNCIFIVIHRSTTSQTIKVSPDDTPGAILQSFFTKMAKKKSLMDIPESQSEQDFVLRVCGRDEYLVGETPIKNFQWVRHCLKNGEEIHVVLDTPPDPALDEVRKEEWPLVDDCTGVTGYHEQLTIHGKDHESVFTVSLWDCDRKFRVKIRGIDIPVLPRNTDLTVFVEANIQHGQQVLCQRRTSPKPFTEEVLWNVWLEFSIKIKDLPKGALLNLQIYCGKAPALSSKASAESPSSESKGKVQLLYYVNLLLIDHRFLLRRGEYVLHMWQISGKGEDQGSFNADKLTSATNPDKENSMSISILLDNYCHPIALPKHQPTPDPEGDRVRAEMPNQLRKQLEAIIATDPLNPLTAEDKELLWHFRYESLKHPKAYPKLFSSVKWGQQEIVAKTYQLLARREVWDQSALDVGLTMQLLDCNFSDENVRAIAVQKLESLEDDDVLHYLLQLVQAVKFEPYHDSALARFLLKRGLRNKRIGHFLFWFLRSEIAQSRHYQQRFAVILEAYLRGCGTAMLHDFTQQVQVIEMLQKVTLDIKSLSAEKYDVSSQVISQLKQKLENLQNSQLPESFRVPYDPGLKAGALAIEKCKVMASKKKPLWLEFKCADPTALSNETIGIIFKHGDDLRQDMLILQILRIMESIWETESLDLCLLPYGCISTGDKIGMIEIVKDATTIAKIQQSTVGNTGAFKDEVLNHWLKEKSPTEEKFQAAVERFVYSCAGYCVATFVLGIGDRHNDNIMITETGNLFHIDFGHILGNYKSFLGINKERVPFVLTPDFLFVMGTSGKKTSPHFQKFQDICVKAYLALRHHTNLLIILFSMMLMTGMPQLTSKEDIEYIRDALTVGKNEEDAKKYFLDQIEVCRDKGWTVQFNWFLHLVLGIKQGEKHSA
The assay is described as follows: HTRF assay, potency against active PI3Kγ. The class given is biochemical. The conditions noted are these: [ATP]=50 μM, [di-C8-PIP2]=10 μM, 30 min pre-incubation, read-out: PI3Kγ Inhibition. The procedure, abridged:
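End-point competition HTRF: enzyme (p110β/p85α 0.75 nM; p120γ 2-2.5 nM) with 10 μM di-C8-PIP2 pre-incubated 30 min at 25° C with compound, then 50 μM ATP added for 30-60 min at 25° C. Stopped, detected after 1 and 18 h; IC50 from variable-slope fit.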

The subject of the next assay is PI3K. The assay is described as follows: PI3K HCT116 cellular assay (Western blot). Conditions: Homo sapiens, HCT-116, HCT116 colon cancer cells, 1 hour incubation, read-out: PI3K Inhibition. Type of assay: cell-based. The procedure: PI3K HCT116 Cellular Assay
Selected compounds were assayed in HCT116 colon cancer cells. […] Cells were then washed with PBS, lysed and the protein lysates were then recovered and analyzed by Western blot.
(In western blotting, separated proteins are transferred to a membrane and probed.)

Assay [1] addresses T3, PI3Kα (Homo sapiens, UniProt P42336). The assay is described as follows: Mass spectrometry of intact PI3Kα (Johns Hopkins), 3 hr incubation. The class given is binding. The arrangement: Johns Hopkins. The conditions noted are these: 10× fold excess of compound, MALDI. The procedure:
(§1) Mass Spectrometry for PI3K
Intact PI3Kα (Johns Hopkins) was incubated for 3 hr at a 10× fold excess of II-a-45 or II-a-49 to protein. Aliquots (3 μL) of the samples were diluted with 10 μL of 0.1% TFA prior to micro C4 ZipTipping directly onto the MALDI target using Sinapinic acid as the desorption matrix (10 mg/ml in 0.1% TFA:Acetonitrile 50:50).
Target sequence in this assay (P42336 whole entry): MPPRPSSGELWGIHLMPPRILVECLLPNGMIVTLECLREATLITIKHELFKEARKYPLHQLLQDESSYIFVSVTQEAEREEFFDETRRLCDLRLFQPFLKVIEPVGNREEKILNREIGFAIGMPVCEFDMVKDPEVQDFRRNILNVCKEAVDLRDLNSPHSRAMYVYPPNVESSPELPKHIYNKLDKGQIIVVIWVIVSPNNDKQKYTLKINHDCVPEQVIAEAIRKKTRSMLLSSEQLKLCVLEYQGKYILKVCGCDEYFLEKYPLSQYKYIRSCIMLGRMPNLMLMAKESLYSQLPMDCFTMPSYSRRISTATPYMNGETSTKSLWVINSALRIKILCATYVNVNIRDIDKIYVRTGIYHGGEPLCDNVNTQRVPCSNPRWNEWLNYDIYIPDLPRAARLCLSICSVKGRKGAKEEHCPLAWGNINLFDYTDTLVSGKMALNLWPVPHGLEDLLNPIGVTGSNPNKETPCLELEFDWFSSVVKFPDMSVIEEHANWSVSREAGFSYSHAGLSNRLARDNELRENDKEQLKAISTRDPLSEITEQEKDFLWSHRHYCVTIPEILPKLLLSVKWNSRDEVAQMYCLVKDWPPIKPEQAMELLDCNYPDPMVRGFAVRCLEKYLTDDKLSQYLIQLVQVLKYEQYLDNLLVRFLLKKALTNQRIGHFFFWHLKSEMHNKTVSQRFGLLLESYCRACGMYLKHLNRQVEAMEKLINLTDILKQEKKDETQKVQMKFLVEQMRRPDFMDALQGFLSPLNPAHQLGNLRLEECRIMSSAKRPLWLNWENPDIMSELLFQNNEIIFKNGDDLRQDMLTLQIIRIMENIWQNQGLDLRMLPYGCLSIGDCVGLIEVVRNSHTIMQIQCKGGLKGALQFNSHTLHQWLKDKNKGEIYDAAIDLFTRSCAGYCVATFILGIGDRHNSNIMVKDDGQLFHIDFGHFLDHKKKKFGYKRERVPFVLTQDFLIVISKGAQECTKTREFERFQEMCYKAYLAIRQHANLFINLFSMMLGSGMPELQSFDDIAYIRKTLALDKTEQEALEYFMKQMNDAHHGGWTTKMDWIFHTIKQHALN
Target sequence in this assay (P27986 322-600 partner limits assumed): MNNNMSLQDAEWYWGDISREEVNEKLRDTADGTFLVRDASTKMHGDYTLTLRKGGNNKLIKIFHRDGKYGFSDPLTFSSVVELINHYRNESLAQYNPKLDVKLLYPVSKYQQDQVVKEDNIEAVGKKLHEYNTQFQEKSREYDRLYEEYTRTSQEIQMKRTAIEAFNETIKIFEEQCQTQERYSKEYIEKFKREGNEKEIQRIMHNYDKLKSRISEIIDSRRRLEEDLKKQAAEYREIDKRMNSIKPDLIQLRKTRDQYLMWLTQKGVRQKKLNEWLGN

Assay [2] relates to Phospho-Akt(Ser473). The assay is described as follows: Dose response in SKOV3 cells as determined by in-cell Western. The class given is cell-based. The conditions noted are these: Homo sapiens, SK-OV-3; SKOV3 cells, 1 hr; read-out: pAKT Inhibition in cell Western. The method in brief:
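SKOV3 cells treated with compound for 1 hr, then formaldehyde-fixed, permeabilised and stained overnight for phospho-Akt(Ser473) with anti-tubulin as a reference. Infrared secondary antibodies read at 680 and 800 nm channels by in-cell Western imaging.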

Assay [3] deals with Phospho-Akt(Ser473). The assay is described as follows: Dose response in SKOV3 cells as determined by Western blot. Type of assay: cell-based. Conditions: Homo sapiens, SK-OV-3, 1 hr, Phospho-Akt normalized to total Akt, read-out: Immunoblot. How it is done: Dose Response in SKOV3 Cells as Determined by Western Blot
SKOV3 cells were plated in SKOV3 Growth Media (DMEM supplemented with 10% FBS and pen/strep) at a density of 4×10^5 cells per well of 12 well plates. Twenty four hours later the media was removed and replaced with 1 ml media containing test compound and 0.1% DMSO and cells were returned to the incubator for 1 hr. At the end of the hour, the media was removed and the cells were washed with PBS, then lysed and scraped into 30 ul of Cell Extraction Buffer (Biosource, Camarillo, Calif.) plus Complete Protease Inhibitor and PhosStop Phosphatase Inhibitor (Roche, Indianapolis, Ind.).
Cell debris was spun down at 13,000×g for 1 minute and the supernatant was taken as the cell lysate. Protein concentration of the lysate was determined by BCA Assay (Pierce Biotechnology, Rockford, Ill.) and 50 ug of protein was loaded per well onto a NuPAGE Novex 4-12% Bis-Tris gel (Invitrogen, Carlsbad, Calif.) then transferred to Immobilon PVDF-FL (Millipore, Billerica, Mass.).
The blot was blocked in Odyssey Blocking Buffer (Li-Cor Biosciences, Lincoln, Nebr.) for 1 hr then incubated overnight at 4° C. with mouse anti-Akt (#2920) and rabbit anti-Phospho-Akt(Ser473) (#9271)(Cell Signaling Technology, Boston, Mass.) antibodies, both diluted 1:1000 in PBS/Odyssey Buffer (1:1)+0.1% Tween-20. The blots were washed 3 times 5 minutes in PBS+0.2% Tween-20 then incubated for 1 hr at room temperature with fluorescently labeled secondary antibodies (Li-Cor) diluted 1:10000 in PBS/Odyssey Buffer (1:1)+0.1% Tween-20.
The blots were washed 2 times for 5 minutes in PBS+0.2% Tween-20, once in distilled water, then scanned on an Odyssey machine (Li-Cor). Band intensity was determined using the Odyssey software and Phopho-Akt signal was normalized to total Akt within samples, then expressed as a percentage of the untreated Phospho-Akt signal.

The next assay has as its target T4, PI3Kβ (p110β/p85α) (Homo sapiens, UniProt P42338).
T4 construct: purchased BPS Bioscience (San Diego, Calif.) or Millipore (Billerica, Mass.)
The assay is described as follows: HTRF assay, potency against active PI3Kβ. Conditions: [ATP]=50 μM, [di-C8-PIP2]=10 μM, 30 min pre-incubation, read-out: PI3Kβ Inhibition. The class given is biochemical. How it is done: Homogeneous Time Resolved Fluorescence (HTRF) Assay Protocol for Potency Assessment Against the Active Forms of PI3Kα, PI3Kβ, and PI3Kγ
The mechanics of the assay platform are best described by the vendor (Millipore, Billerica, Mass.) on their website at the following URL: www.millipore.com/coa/tech1/74jt4z.
Briefly, Stop solution (Stop A, #33-007 and Stop B, #33-009; 3:1 ratio) and Detection Mix (from DMC, #33-015 with DMA, #33-011 and DMB, #33-013; 18:1:1 ratio) were prepared as recommended by the manufacturer about 2 hrs prior to use. […] Lipid kinase reactions were started with the addition of 5 μL of ATP solution, mixed for 15 sec on a rotary plate shaker and incubated for 30-60 minutes at 25° C. Next, reactions were stopped with a 5 μL addition of Stop solution immediately followed by a 5 μL volume of Detection Mix. […] At the conclusion of each assay, the HTRF ratio from fluorescence emission values for each well was calculated and % Inhibition determined from averaged controls wells (+/−PI3K enzyme). % Inhibition values for each compound were then plotted against inhibitor concentration to estimate IC50 from log [Inhibitor] vs Response, Variable Slope model in GraphPad Prism from GraphPad Software (San Diego, Calif.).

Assay [4] addresses T3, PI3Kα. The assay is described as follows: Mass spectrometry of intact PI3Kα (Millipore, 14-602), 1 hr incubation. The arrangement: purchased Millipore 14-602. Type of assay: binding. The conditions noted are these: 10× fold excess of compound, MALDI. How it is done:
as §1
Target sequence in this assay (P42336 whole entry): as the sequence (P42336 whole entry) above
Target sequence in this assay (P27986 whole entry partner): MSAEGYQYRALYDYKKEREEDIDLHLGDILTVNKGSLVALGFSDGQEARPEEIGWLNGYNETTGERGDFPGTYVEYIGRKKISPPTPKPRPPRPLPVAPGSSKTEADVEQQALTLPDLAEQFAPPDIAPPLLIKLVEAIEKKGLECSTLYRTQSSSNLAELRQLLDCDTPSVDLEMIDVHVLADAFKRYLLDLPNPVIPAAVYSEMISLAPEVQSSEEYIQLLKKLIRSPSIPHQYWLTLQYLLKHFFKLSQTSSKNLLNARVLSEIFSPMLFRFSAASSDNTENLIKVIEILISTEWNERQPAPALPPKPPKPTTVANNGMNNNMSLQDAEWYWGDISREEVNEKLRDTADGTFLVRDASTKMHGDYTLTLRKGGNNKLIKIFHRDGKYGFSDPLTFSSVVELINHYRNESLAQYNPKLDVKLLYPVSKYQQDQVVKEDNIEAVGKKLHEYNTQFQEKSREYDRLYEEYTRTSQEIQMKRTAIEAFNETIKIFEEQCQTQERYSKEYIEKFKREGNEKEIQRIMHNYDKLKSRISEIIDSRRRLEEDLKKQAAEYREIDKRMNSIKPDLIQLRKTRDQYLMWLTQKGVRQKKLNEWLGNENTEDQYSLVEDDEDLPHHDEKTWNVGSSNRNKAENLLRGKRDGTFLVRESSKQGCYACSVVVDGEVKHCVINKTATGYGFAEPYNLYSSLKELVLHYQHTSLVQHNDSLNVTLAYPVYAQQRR
Aliquots (5 μl) of the samples were diluted with 15 μl of 0.2% TFA prior to micro C4 ZipTipping directly onto the MALDI target using Sinapinic acid as the desorption matrix (10 mg/ml in 0.1% TFA:Acetonitrile 50:50).

The structures appear in SMILES notation. Entries after “also recorded” stand apart in the source; their conditions may differ. Where only a bound is given, the exact number is not on record here.

T4 sequence (P42338 whole entry): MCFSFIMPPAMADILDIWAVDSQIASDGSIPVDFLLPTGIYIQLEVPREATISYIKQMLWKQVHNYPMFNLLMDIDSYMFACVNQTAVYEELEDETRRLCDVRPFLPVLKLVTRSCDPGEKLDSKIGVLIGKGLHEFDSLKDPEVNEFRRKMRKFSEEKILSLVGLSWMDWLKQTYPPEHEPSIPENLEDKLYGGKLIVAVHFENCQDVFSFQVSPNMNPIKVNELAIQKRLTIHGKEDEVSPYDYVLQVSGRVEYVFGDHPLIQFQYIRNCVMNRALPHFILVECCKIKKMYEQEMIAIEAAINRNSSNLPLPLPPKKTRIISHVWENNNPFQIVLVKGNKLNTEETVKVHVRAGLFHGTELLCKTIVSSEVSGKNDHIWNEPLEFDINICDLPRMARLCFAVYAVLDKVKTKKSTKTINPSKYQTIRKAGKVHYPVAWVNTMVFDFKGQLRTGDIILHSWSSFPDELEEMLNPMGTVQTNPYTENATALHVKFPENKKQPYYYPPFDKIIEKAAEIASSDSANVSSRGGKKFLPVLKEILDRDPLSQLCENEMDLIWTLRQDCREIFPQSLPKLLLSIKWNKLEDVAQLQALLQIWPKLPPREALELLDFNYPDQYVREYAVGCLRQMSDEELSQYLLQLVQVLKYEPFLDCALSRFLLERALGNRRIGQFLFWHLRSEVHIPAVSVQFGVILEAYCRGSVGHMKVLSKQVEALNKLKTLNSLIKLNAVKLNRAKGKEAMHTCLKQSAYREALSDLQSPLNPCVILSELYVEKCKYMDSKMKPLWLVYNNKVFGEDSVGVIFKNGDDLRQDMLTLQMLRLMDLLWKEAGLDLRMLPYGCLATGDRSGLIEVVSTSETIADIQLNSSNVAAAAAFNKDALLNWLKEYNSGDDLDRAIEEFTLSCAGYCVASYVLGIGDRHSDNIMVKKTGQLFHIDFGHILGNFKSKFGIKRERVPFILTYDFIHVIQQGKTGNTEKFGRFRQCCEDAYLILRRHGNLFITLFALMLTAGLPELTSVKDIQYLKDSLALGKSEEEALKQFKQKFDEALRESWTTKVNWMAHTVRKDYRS
T4 sequence (P27986 whole entry partner): as the sequence (P27986 whole entry partner) above
T1 sequence (P42336 whole entry): as the sequence (P42336 whole entry) above
T1 sequence (P27986 whole entry partner): as the sequence (P27986 whole entry partner) above

Take `C/C=C/C(=O)CCC(=O)NCC(=O)N1CCN(Cc2cc3nc(-c4cccc5[nH]ncc45)nc(N4CCOCC4)c3s2)CC1` [II-a-16, (E)-N-(2-(4-((2-(1H-indazol-4-yl)-4-morpholinothieno[3,2-d]pyrimidin-6-yl)methyl)piperazin-1-yl)-2-oxoethyl)-4-oxohept-5-enamide]: the IC50 on PI3Kα (p110α/p85α) is below 10 nM; at PI3Kγ (p120γ) it was above 1000 nM. Also, the “times more potent than its reversible counterpart II^R-a-16” value on PI3Kα (p110α/p85α) (PI3Kα HTRF assay) is listed as “about 35 times”. For the same compound, the EC50 in the assay with PI3K was in the range of 100 to 500 nM. The “covalent modification of PI3Kα” value at PI3Kα [1] is given as “completely modify”.

With `CC(C)/C=C/C(=O)CCC(=O)N1CCN(Cc2cc3nc(-c4cccc5[nH]ncc45)nc(N4CCOCC4)c3s2)CC1` [II-a-54, (E)-1-(4-((2-(1H-indazol-4-yl)-4-morpholinothieno[3,2-d]pyrimidin-6-yl)methyl)piperazin-1-yl)-7-methyloct-5-ene-1,4-dione], the IC50 is 10 to 100 nM on PI3Kα (p110α/p85α) and above 1000 nM at PI3Kγ (p120γ). Further, at PI3Kα [1], the “covalent modification of PI3Kα” value is given as “completely modify”.

Regarding `O=C(/C=C/c1ccccc1)CCC(=O)N1CCN(Cc2cc3nc(-c4cccc5[nH]ncc45)nc(N4CCOCC4)c3s2)CC1` [II-a-116, (E)-1-(4-((2-(1H-indazol-4-yl)-4-morpholinothieno[3,2-d]pyrimidin-6-yl)methyl)piperazin-1-yl)-6-phenylhex-5-ene-1,4-dione], the figures for the IC50 at PI3Kα (p110α/p85α) and on PI3Kβ (p110β/p85α) were 10 to 100 nM and above 1000 nM, respectively. Also, the EC50 in the assay with Phospho-Akt(Ser473) [2] and in the assay on Phospho-Akt(Ser473) [3] was 10 to 100 nM in each case.

In the case of `C/C=C/C(=O)CCC(=O)NCC(=O)N1CCN(Cc2cc3nc(-c4cccc(O)c4)nc(N4CCOCC4)c3s2)CC1` [II-a-37, (E)-N-(2-(4-((2-(3-hydroxyphenyl)-4-morpholinothieno[3,2-d]pyrimidin-6-yl)methyl)piperazin-1-yl)-2-oxoethyl)-4-oxohept-5-enamide], the IC50 at PI3Kα (p110α/p85α) is below 10 nM; at PI3Kγ (p120γ), above 1000 nM. In addition, the values for the EC50 with PI3K and with Phospho-Akt(Ser473) [2] were 20 to 100 nM and 100 to 1000 nM, respectively. Moreover, the “covalent modification of PI3Kα” value on PI3Kα [1] is “completely modify”.

As for `C/C=C/C(=O)CCC(=O)N1CC=C(c2cc3nc(-c4cccc(O)c4)nc(N4CCOCC4)c3s2)CC1` [II-a-45, (E)-1-(4-(2-(3-hydroxyphenyl)-4-morpholinothieno[3,2-d]pyrimidin-6-yl)-5,6-dihydropyridin-1(2H)-yl)hept-5-ene-1,4-dione], the results for the IC50 on PI3Kα (p110α/p85α) and at PI3Kγ (p120γ) were below 10 nM and 100 to 1000 nM, respectively. The EC50 in the assay with PI3K was 100 to 500 nM; in the assay on Phospho-Akt(Ser473) [2], at most 10 nM. Further, the “covalent modification of PI3Kα” value at PI3Kα [1] is “covalent modification; also recorded: complete modification”. At PI3Kα [1], the “positive mass shift of PI3Kα” value is reported as 563 Da.

On to `C/C=C/C(=O)CCC(=O)N1CCN(Cc2cc3nc(-c4cnc(N)nc4)nc(N4CCOCC4)c3s2)CC1` [II-a-112, (E)-1-(4-((2-(2-aminopyrimidin-5-yl)-4-morpholinothieno[3,2-d]pyrimidin-6-yl)methyl)piperazin-1-yl)hept-5-ene-1,4-dione], for which the IC50 at PI3Kα (p110α/p85α) lay within 10 to 100 nM; at PI3Kβ (p110β/p85α), 100 to 1000 nM. The EC50 with Phospho-Akt(Ser473) [2] is at most 10 nM; in the assay with Phospho-Akt(Ser473) [3] it was 10 to 100 nM.

For `C=C(C)C(=O)CCC(=O)NCC(=O)N1CCN(Cc2cc3nc(-c4cccc5[nH]ncc45)nc(N4CCOCC4)c3s2)CC1` [II-a-33, N-(2-(4-((2-(1H-indazol-4-yl)-4-morpholinothieno[3,2-d]pyrimidin-6-yl)methyl)piperazin-1-yl)-2-oxoethyl)-5-methyl-4-oxohex-5-enamide], the IC50 is 10 to 100 nM at PI3Kα (p110α/p85α) and above 1000 nM on PI3Kγ (p120γ). Moreover, the EC50 in the assay with PI3K lay within 20 to 100 nM. Further, the “covalent modification of PI3Kα” value at PI3Kα [1] is “completely modify”.

For the compound `CC(C)=CC(=O)CCCC(=O)N1CC=C(c2cc3nc(-c4cnc(N)nc4)nc(C4=CCOCC4)c3s2)CC1` [II-a-169], the IC50 at PI3Kα (p110α/p85α) is 10 to 100 nM; on PI3Kγ (p120γ), 100 to 1000 nM; at PI3Kβ (p110β/p85α) it was above 1000 nM.

For `C=CC(=O)Nc1ccc(CC(=O)N2CCN(c3cc(-c4cnc(N)nc4)nc(N4CCOCC4)c3)CC2)cc1` [XII-54], the IC50 on PI3Kα (p110α/p85α) lay within 100 to 1000 nM. Moreover, in the assay with Phospho-Akt(Ser473) [2], the EC50 was in the range of 100 to 1000 nM. Moreover, on PI3Kα [4], the “covalent modification of PI3Kα” value was “covalent modification”; the “mass shift of PI3Kα” value was determined as 542 Da; the “mass shift of PI3Kα, per cent in brackets” value amounted to 103%.

On to `CC(C)=CC(=O)CCC(=O)N1CC2(CCN(c3cc(-c4cnc(N)nc4)nc(N4CCOCC4)c3)CC2)C1` [XII-42, 1-(7-(2-(2-aminopyrimidin-5-yl)-6-morpholinopyridin-4-yl)-2,7-diazaspiro[3.5]nonan-2-yl)-6-methylhept-5-ene-1,4-dione], for which the IC50 on PI3Kα (p110α/p85α) is above 1000 nM. The EC50 in the assay on Phospho-Akt(Ser473) [2] was 100 to 1000 nM. Further, the “covalent modification of PI3Kα” value at PI3Kα [4] was “similarly modify”.
